{"source": "patent US12503471B2", "about": "“Triazatricycle compounds for the treatment of autoimmune disease” (Hoffmann-La Roche Inc., priority 2019, dated 2025)", "key": {"[1]": {"assay": "Human microsomal stability assay", "type": "in vitro ADME", "settings": "human liver microsomes, 1 μM test compound, 0.5 mg/mL protein, 37° C., pH 7.4", "procedure": "Human Microsomal Stability Assay\nHuman liver microsomes (Cat.NO.: 452117, Corning, USA) were preincubated with test compound for 10 minutes at 37° C. in 100 mM potassium phosphate buffer, pH 7.4. The reactions were initiated by adding NADPH regenerating system. The final incubation mixtures contained 1 μM test compound, 0.5 mg/mL liver microsomal protein, 1 mM MgCl2, 1 mM NADP, 1 unit/mL isocitric dehydrogenase and 6 mM isocitric acid in 100 mM potassium phosphate buffer, pH 7.4. After incubation times of 0, 3, 6, 9, 15 and 30 minutes at 37° C., 300 μL of cold ACN (including internal standard) was added to 100 μL incubation mixture to terminate the reaction. Following precipitation and centrifugation, 100 uL supernatant will be taken out and added 300 uL water. The amount of compound remaining in the samples was determined by LC-MS/MS. Controls of no NADPH regenerating system at zero and 30 minutes were also prepared and analyzed. The results were categorized as: low (7.0 mL/min/kg), medium (7.0-16.2 mL/min/kg) and high (16.2-23.2 mL/min/kg)."}, "[2]": {"target": "T1, human TLR8 (Homo sapiens, UniProt Q9NR97)", "T1 construct": "host or cells: HEK293 (HEK-Blue hTLR8)", "T1 sequence (Q9NR97 27-1041)": "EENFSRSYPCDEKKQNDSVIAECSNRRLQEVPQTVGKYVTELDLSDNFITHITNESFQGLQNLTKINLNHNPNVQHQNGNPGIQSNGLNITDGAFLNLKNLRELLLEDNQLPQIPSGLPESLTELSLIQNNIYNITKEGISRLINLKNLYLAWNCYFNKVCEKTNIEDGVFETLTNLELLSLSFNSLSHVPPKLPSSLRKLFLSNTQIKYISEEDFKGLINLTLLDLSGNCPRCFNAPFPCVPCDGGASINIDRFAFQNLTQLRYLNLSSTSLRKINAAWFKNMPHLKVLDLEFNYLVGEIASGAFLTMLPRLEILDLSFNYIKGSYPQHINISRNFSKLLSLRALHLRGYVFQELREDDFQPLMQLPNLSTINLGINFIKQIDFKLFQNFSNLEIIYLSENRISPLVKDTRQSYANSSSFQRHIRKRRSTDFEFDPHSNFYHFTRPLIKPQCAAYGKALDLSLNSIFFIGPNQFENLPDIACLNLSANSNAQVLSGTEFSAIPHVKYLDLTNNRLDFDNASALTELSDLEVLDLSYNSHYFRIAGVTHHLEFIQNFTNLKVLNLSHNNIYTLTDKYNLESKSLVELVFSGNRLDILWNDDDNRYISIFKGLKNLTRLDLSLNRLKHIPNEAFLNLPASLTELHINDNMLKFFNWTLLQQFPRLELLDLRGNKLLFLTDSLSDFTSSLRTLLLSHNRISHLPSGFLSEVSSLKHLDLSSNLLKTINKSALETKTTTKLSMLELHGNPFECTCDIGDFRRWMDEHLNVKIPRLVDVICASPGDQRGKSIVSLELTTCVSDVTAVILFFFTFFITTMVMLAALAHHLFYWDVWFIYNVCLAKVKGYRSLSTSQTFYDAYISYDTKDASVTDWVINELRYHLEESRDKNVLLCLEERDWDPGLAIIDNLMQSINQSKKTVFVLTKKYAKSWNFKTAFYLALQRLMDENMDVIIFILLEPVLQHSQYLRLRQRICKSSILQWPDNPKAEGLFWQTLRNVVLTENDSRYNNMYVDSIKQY", "assay": "HEK293-Blue-hTLR-8 cells assay", "type": "cell-based", "settings": "HEK293-Blue-hTLR8 cells, R848 stimulation, 20 hrs, SEAP reporter; read-out: HEK/hTLR8 IC50", "source_text": "HEK293-Blue-hTLR-8 Cells Assay:\nA stable HEK293-Blue-hTLR-8 cell line was purchased from InvivoGen (Cat. #: hkb-htlr8, San Diego, Calif., USA). These cells were originally designed for studying the stimulation of human TLR8 by monitoring the activation of NF-κB. A SEAP (secreted embryonic alkaline phosphatase) reporter gene was placed under the control of the IFN-β minimal promoter fused to five NF-κB and AP-1-binding sites. The SEAP was induced by activating NF-κB and AP-1 via stimulating HEK-Blue hTLR8 cells with TLR8 ligands. Therefore the reporter expression was declined by TLR8 antagonist under the stimulation of a ligand, such as R848, for incubation of 20 hrs. The cell culture supernatant SEAP reporter activity was determined using QUANTI-Blue™ kit (Cat. #: rep-qbl, Invivogen, San Diego, Ca, USA) at a wavelength of 640 nm, a detection medium that turns purple or blue in the presence of alkaline phosphatase.\nHEK293-Blue-hTLR8 cells were incubated at a density of 250,000˜450,000 cells/mL in a volume of 170 μL in a 96-well plate in Dulbecco's Modified Eagle's medium (DMEM) containing 4.5 g/L glucose, 50 U/mL penicillin, […], […], 2 mM L-glutamine, 10% (v/v) heat-inactivated fetal bovine serum with addition of 20 μL test compound in a serial dilution in the presence of final DMSO at 1% and 10 μL of 60 uM R848 in above DMEM, perform incubation under 37° C. in a CO2 incubator for 20 hrs. Then 20 μL of the supernatant from each well was incubated with 180 μL Quanti-blue substrate solution at 37° C. for 2 hrs and the absorbance was read at 620-655 nm using a spectrophotometer. The signaling pathway that TLR8 activation leads to downstream NF-κB activation has been widely accepted, and therefore similar reporter assay was modified for evaluating TLR8 antagonist."}}}
{"smiles": "C[C@@H]1CN(c2ccc(C#N)c3ncccc23)C[C@@H]2c3cnc(N4CCNCC4)cc3CN12", "note": "[Example 2, 5-[(2S,6R)-6-methyl-11-piperazin-1-yl-4,7,12-triazatricyclo[7.4.0.02,7]trideca-1(9),10,12-trien-4-yl] quinoline-8-carbonitrile]", "values": [{"measurement": "CL (h)", "setting": "[1]", "result": 6.2, "unit": "mL/min/kg"}, {"measurement": "IC50", "setting": "[2]", "result": 400, "unit": "pM"}]}
{"smiles": "N#Cc1ccc(N2CCN3Cc4nc(N5CCNCC5)ccc4[C@@H]3C2)c2cccnc12", "note": "[Example 3A, 5-[(2R)-11-piperazin-1-yl-4,7,10-triazatricyclo[7.4.0.02,7]trideca-1(9),10,12-trien-4-yl]quinoline-8-carbonitrile]", "values": [{"measurement": "CL (h)", "setting": "[1]", "result": 8.4, "unit": "mL/min/kg"}, {"measurement": "IC50", "setting": "[2]", "result": 500, "unit": "pM"}]}
{"smiles": "CC1(N)CCN(c2ccc3c(n2)CN2CCN(c4ccc(C#N)c5ncccc45)C[C@@H]32)CC1", "note": "[Example 4A, 5-[(2R)-11-(4-amino-4-methyl-1-piperidyl)-4,7,10-triazatricyclo[7.4.0.02,7]trideca-1(9),10,12-trien-4-yl]quinoline-8-carbonitrile]", "values": [{"measurement": "CL (h)", "setting": "[1]", "result": 8.9, "unit": "mL/min/kg"}, {"measurement": "IC50", "setting": "[2]", "result": 1900, "unit": "pM"}]}
{"smiles": "C[C@@H]1CN(c2ccc(C#N)c3ncccc23)C[C@@H]2c3ccc(N4CCNCC4)nc3CN12", "note": "[Example 5, 5-[(2S,6R)-6-methyl-11-piperazin-1-yl-4,7,10-triazatricyclo[7.4.0.02,7]trideca-1(9),10,12-trien-4-yl]quinoline-8-carbonitrile]", "values": [{"measurement": "CL (h)", "setting": "[1]", "result": 8.1, "unit": "mL/min/kg"}, {"measurement": "IC50", "setting": "[2]", "result": "< 300", "unit": "pM"}]}
{"smiles": "C[C@@H]1CN(c2ccc(C#N)c3ncccc23)C[C@@H]2c3ccc(N4CC5CNCC(C4)O5)nc3CN12", "note": "[Example 6, 5-[(2S,6R)-6-methyl-11-(9-oxa-3,7-diazabicyclo[3.3.1]nonan-3-yl)-4,7,10-triazatricyclo[7.4.0.02,7]trideca-1(9),10,12-trien-4-yl]quinoline-8-carbonitrile]", "values": [{"measurement": "CL (h)", "setting": "[1]", "result": 6.2, "unit": "mL/min/kg"}, {"measurement": "IC50", "setting": "[2]", "result": 2300, "unit": "pM"}]}
{"smiles": "[2H]c1ccc2c(N3C[C@@H](C)N4Cc5nc(N6CC[C@@](C)(N)C6)ccc5[C@H]4C3)ccc(C#N)c2n1", "note": "[Example 7, 5-[(2S,6R)-11-[(3R)-3-amino-3-methyl-pyrrolidin-1-yl]-6-methyl-4,7,10-triazatricyclo[7.4.0.02,7]trideca-1(9),10,12-trien-4-yl]-2-deuterio-quinoline-8-carbonitrile]", "values": [{"measurement": "CL (h)", "setting": "[1]", "result": 6.2, "unit": "mL/min/kg"}, {"measurement": "IC50", "setting": "[2]", "result": "< 300", "unit": "pM"}]}
{"smiles": "[2H]c1ccc2c(N3C[C@@H](C)N4Cc5nc(N6CC[C@](C)(N)C6)ccc5[C@H]4C3)ccc(C#N)c2n1", "note": "[Example 8, 5-[(2S,6R)-11-[(3S)-3-amino-3-methyl-pyrrolidin-1-yl]-6-methyl-4,7,10-triazatricyclo[7.4.0.02,7]trideca-1(9),10,12-trien-4-yl]-2-deuterio-quinoline-8-carbonitrile]", "values": [{"measurement": "CL (h)", "setting": "[1]", "result": 6.2, "unit": "mL/min/kg"}, {"measurement": "IC50", "setting": "[2]", "result": "< 300", "unit": "pM"}]}
{"smiles": "[2H]c1ccc2c(N3C[C@@H](C)N4Cc5nc(N6CC[C@H]7CNC[C@H]76)ccc5[C@H]4C3)ccc(C#N)c2n1", "note": "[Example 10, 5-[(2S,6R)-11-[(3aS,6aS)-3,3a,4,5,6,6a-hexahydro-2H-pyrrolo[2,3-c]pyrrol-1-yl]-6-methyl-4,7,10-triazatricyclo[7.4.0.02,7]trideca-1(9),10,12-trien-4-yl]-2-deuterio-quinoline-8-carbonitrile]", "values": [{"measurement": "IC50", "setting": "[2]", "result": "< 300", "unit": "pM"}]}
{"smiles": "[2H]c1ccc2c(N3C[C@@H](C)N4Cc5nc(N6CC[C@H](N)[C@@H](OC)C6)ccc5[C@H]4C3)ccc(C#N)c2n1", "note": "[Example 12, 5-[(2S,6R)-11-[(3S,4S)-4-amino-3-methoxy-1-piperidyl]-6-methyl-4,7,10-triazatricyclo[7.4.0.02,7]trideca-1(9),10,12-trien-4-yl]-2-deuterio-quinoline-8-carbonitrile]", "values": [{"measurement": "IC50", "setting": "[2]", "result": "< 300", "unit": "pM"}]}
{"smiles": "[2H]c1ccc2c(N3C[C@@H](C)N4Cc5nc(N6CC[C@H](OC)[C@@H](N)C6)ccc5[C@H]4C3)ccc(C#N)c2n1", "note": "[Example 14, 5-[(2S,6R)-11-[(3S,4S)-3-amino-4-methoxy-1-piperidyl]-6-methyl-4,7,10-triazatricyclo[7.4.0.02,7]trideca-1(9),10,12-trien-4-yl]-2-deuterio-quinoline-8-carbonitrile]", "values": [{"measurement": "IC50", "setting": "[2]", "result": "< 300", "unit": "pM"}]}
{"smiles": "[2H]c1ccc2c(N3C[C@@H](C)N4Cc5nc(N6CC[C@@H](OC)[C@H](N)C6)ccc5[C@H]4C3)ccc(C#N)c2n1", "note": "[Example 15, 5-[(2S,6R)-11-[(3R,4R)-3-amino-4-methoxy-1-piperidyl]-6-methyl-4,7,10-triazatricyclo[7.4.0.02,7]trideca-1(9),10,12-trien-4-yl]-2-deuterio-quinoline-8-carbonitrile]", "values": [{"measurement": "IC50", "setting": "[2]", "result": "< 300", "unit": "pM"}]}
{"smiles": "[2H]c1ccc2c(N3C[C@@H](C)N4Cc5nc(N6C[C@H]7C[C@@H]6CN7)ccc5[C@H]4C3)ccc(C#N)c2n1", "note": "[Example 17, 2-Deuterio-5-[(2S,6R)-11-[(1R,4R)-2,5-diazabicyclo[2.2.1]heptan-2-yl]-6-methyl-4,7,10-triazatricyclo[7.4.0.02,7]trideca-1(9),10,12-trien-4-yl]quinoline-8-carbonitrile]", "values": [{"measurement": "IC50", "setting": "[2]", "result": "< 300", "unit": "pM"}]}
{"smiles": "[2H]c1ccc2c(N3C[C@@H](C)N4Cc5nc(N6CCC7(CC6)CNCCO7)ccc5[C@H]4C3)ccc(C#N)c2n1", "note": "[Example 18, 2-Deuterio-5-[(2S,6R)-6-methyl-11-(1-oxa-4,9-diazaspiro[5.5]undecan-9-yl)-4,7,10-triazatricyclo[7.4.0.02,7]trideca-1(9),10,12-trien-4-yl]quinoline-8-carbonitrile]", "values": [{"measurement": "IC50", "setting": "[2]", "result": "< 300", "unit": "pM"}]}
{"smiles": "[2H]c1ccc2c(N3C[C@@H](C)N4Cc5nc(N6CCC(C)(N)CC6)ccc5[C@H]4C3)ccc(C#N)c2n1", "note": "[Example 19, 5-[(2S,6R)-11-(4-amino-4-methyl-1-piperidyl)-6-methyl-4,7,10-triazatricyclo[7.4.0.02,7]trideca-1(9),10,12-trien-4-yl]-2-deuterio-quinoline-8-carbonitrile]", "values": [{"measurement": "IC50", "setting": "[2]", "result": "< 300", "unit": "pM"}]}
{"smiles": "C[C@@H]1CN(c2ccc(C#N)c3ncccc23)C[C@@H]2c3ccc(N4CCCNCC4)nc3CN12", "note": "[Example 20, 5-[(2S,6R)-11-(1,4-diazepan-1-yl)-6-methyl-4,7,10-triazatricyclo[7.4.0.02,7]trideca-1(9),10,12-trien-4-yl]quinoline-8-carbonitrile]", "values": [{"measurement": "IC50", "setting": "[2]", "result": "< 300", "unit": "pM"}]}
{"smiles": "[2H]c1ccc2c(N3C[C@@H](C)N4Cc5nc(O[C@H]6CCNC6)ccc5[C@H]4C3)ccc(C#N)c2n1", "note": "[Example 25, 2-Deuterio-5-[(2S,6R)-6-methyl-11-[(3S)-pyrrolidin-3-yl]oxy-4,7,10-triazatricyclo[7.4.0.02,7]trideca-1(9),10,12-trien-4-yl]quinoline-8-carbonitrile]", "values": [{"measurement": "IC50", "setting": "[2]", "result": "< 300", "unit": "pM"}]}
